Values quoted from earlier work, collected in patent publication US10215758B2, “Platinum-labeled probes for mass cytometry” (priority 2015, dated 2019).

Conditions: human, in vivo; cited from earlier work

Q: For N.N.[Cl][Pt][Cl] [cisplatin, cis-diamminedichloroplatinum(II)], which “binding to serum protein” value is on record?
A: most cisplatin binds to serum protein within hours
